What was measured:
MT4 = assay: Tested for cytopathic effect of HIVIIIB in MT-4 cells in presence of 50% human serum; format: functional, cell-based
[1] = target: Human immunodeficiency virus type 1 protease (Human immunodeficiency virus 1) (UniProt Q72874); assay: Inhibitory activity (0.5 nM) against Protease

Structure (SMILES)	inhibition [1]	EC50 (MT4)
Cc1cccc(C)c1OCC(=O)N[C@@H](Cc1ccccc1)[C@@H](O)C[C@H](Cc1ccccc1)NC(=O)[C@H](C(C)C)N1CCC(=O)NC1=O	100%	140 nM
Cc1cccc(C)c1OCC(=O)N[C@@H](Cc1ccccc1)[C@@H](O)C[C@H](Cc1ccccc1)NC(=O)[C@H](C(C)C)N1C(=O)CCC1=O	58%	2510 nM
Cc1cccc(C)c1OCC(=O)N[C@@H](Cc1ccccc1)[C@@H](O)C[C@H](Cc1ccccc1)NC(=O)[C@H](C(C)C)N1CCNC(=O)C1=O	73%	3050 nM
Cc1cccc(C)c1OCC(=O)N[C@@H](Cc1ccccc1)[C@@H](O)C[C@H](Cc1ccccc1)NC(=O)[C@H](C(C)C)N1CCCNC1=O [LOPINAVIR]		100 nM
Cc1cccc(C)c1OCC(=O)N[C@@H](Cc1ccccc1)[C@@H](O)C[C@H](Cc1ccccc1)NC(=O)[C@H](C(C)C)N1CCNC1=O	93%	70 nM
Cc1cccc(C)c1OCC(=O)N[C@@H](Cc1ccccc1)[C@@H](O)C[C@H](Cc1ccccc1)NC(=O)[C@H](C(C)C)N1CCN=C1S	63%	3800 nM

More lines, main results first:

inhibition [1]	Structure (SMILES)	EC50 (MT4)
80%	Cc1cccc(C)c1OCC(=O)N[C@@H](Cc1ccccc1)[C@@H](O)C[C@H](Cc1ccccc1)NC(=O)[C@H](C(C)C)N1CCCN(C)C1=O	1060 nM
87%	Cc1cccc(C)c1OCC(=O)N[C@@H](Cc1ccccc1)[C@@H](O)C[C@H](Cc1ccccc1)NC(=O)[C@H](C(C)C)N1CCCC1=O	310 nM
85%	Cc1cccc(C)c1OCC(=O)N[C@@H](Cc1ccccc1)[C@@H](O)C[C@H](Cc1ccccc1)NC(=O)[C@H](C(C)C)N1CCCOC1=O	270 nM
87%	Cc1cccc(C)c1OCC(=O)N[C@@H](Cc1ccccc1)[C@@H](O)C[C@H](Cc1ccccc1)NC(=O)[C@H](C(C)C)N1CCOC1=O	110 nM

Source: ChEMBL document CHEMBL1146747, “Novel lopinavir analogues incorporating heterocyclic replacements of six-member cyclic urea--synthesis and structure-activity relationships” (Bioorg Med Chem Lett, 2004)
